Data on one compound can be found in patent US9353419B2, “Biomarkers for IAP inhibitor therapy” (Novartis AG, priority 2012, dated 2016).

Test [1] has as its system patient-derived tumor models representing triple negative breast cancer, NSCLC and pancreatic cancer. The test is described as follows: single agent activity in patient-derived tumor models (primary human tumors grown as xenografts in mice). The format is in vivo. The text has this: In addition, (S)—N—((S)-1-Cyclohexyl-2-{(S)-2-[4-(4-fluoro-benzoyl)-thiazol-2-yl]-pyrrolidin-1-yl}-2-oxo-ethyl)-2-methylamino-propionamide has been tested for single agent activity in 55 patient-derived tumor models representing triple negative breast cancer, NSCLC and pancreatic cancer models.
(In general: A xenograft is tissue or cells of one species grown in another, often human tumour cells in immunodeficient mice.)

Test [2] relates to panel of >500 tumor cell lines. The test can be described thus: 72 hour proliferation assay, single agent cellular activity against tumor cell line panel. The class given is cell-based. The text has this:
We used a statistical framework that integrates pharmacological data together with genetic and mRNA expression data in order to develop biomarkers for predicting response to IAP inhibitors. Using genomic data generated as part of the Cancer Cell Line Encyclopedia collection (Barretina J S, Caponigro G, Stransky N et al (2012) Nature; 483:603-7), we assembled gene copy number, mRNA expression and mutation data into a single matrix. Single agent cellular activity of various IAP antagonists was assessed against a panel of >500 tumor cell lines using a 72 hour proliferation assay. We classified these cell lines into sensitive, intermediate and refractory classes based on the distribution of IC50 data and manual curation of individual responses. A statistical test was applied in order to identify genomic “features” that could differentiate IAP antagonist-sensitive cell lines from refractory lines. Among the top-ranked genes showing differential mRNA expression were TNF and RIPK1, two genes with evidence for apoptotic response to IAP antagonists based on previous experimental studies involving one or a few cell lines. We are thus able to extend prior observations on limited experiments systematically to a large set of data and identified an additional set of seven genes (CXLC10, CCL5, NFKBIA, HERC5, CDYL, STK39 and MAPK14), whose mRNAs were differentially expressed in sensitive compared refractory lines.
We built a predictive machine learning model using the Naive Bayes classifier based on the 9-gene signature as well as a 2-gene TNF/RIPK1 signature. […] For example, at model cutoffs optimized to obtain balanced performance between sensitivity and specificity for each model, the signatures yielded response rates of 16-18% in cross-validation compared to 8% response rate at random without any selection. This improved response rate was further validated in independent experimental testing of a compound-naive set of cell lines that were predicted to be sensitive (AUCs in Table 2).

In the case of `CN[C@@H](C)C(=O)N[C@H](C(=O)N1CCC[C@H]1c1nc(C(=O)c2ccc(F)cc2)cs1)C1CCCCC1` [(S)—N—((S)-1-Cyclohexyl-2-{(S)-2-[4-(4-fluoro-benzoyl)-thiazol-2-yl]-pyrrolidin-1-yl}-2-oxo-ethyl)-2-methylamino-propionamide], the “single agent activity (range of responses)” value in test [1] (55 patient-derived tumor models) was “ranging from tumor regression to no effect”. Further, the response rate is listed as 11% in test [1] (at random, 55 patient-derived tumor models); around 30% in test [1] (models selected by 2-gene, 3-gene and 9-gene signatures, balanced model cutoffs). Further, the “cell line response rate” value in test [2] (at random, without any selection ("all-comers" cell lines)) is on record as 8%; in test [2] (cell lines selected by gene signatures (2-gene, 9-gene), balanced model cutoffs, cross-validation), 16-18%. For the same compound, the “increase in response rate compared to random or "all-comers" cell lines” value in test [2] (at several model cutoff regimes of the predictive signatures) is recorded as “two- to three-fold”.
